{
  "source": "PubChem BioAssay AID242",
  "about": "(DTP/NCI, 2004)",
  "tested_on": "BDF1 mice, Lymphoma 8 ip, survival T/C",
  "assay": "NCI In Vivo Anticancer Drug Screen. Data for tumor model Lymphoma 8 (intraperitoneal) in B6D2F1 (BDF1) mice",
  "settings": "higher = longer survival",
  "method": "The antitumor activity of compounds was measured in mice bearing transplantable tumors. Survival or tumor size were measured and the results are expressed as the measurement made in the treated group (T) divided by the measurement made in the vehicle treated control group (C). The tumor model used in this assay is Lymphoma 8 (intraperitoneal) in B6D2F1 (BDF1) mice",
  "key": {"[1]": {"settings": "endpoint: survival time, mean or median, dose: 3.13 mg/kg/injection, schedule: Q01DX010 (ip), vehicle: saline"}, "[2]": {"settings": "endpoint: survival time, mean or median, dose: 12.5 mg/kg/injection, schedule: Q01DX010 (ip), vehicle: saline"}, "[3]": {"settings": "endpoint: survival time, mean or median, dose: 25.0 mg/kg/injection, schedule: Q01DX010 (ip), vehicle: saline"}, "[4]": {"settings": "endpoint: survival time, mean or median, dose: 20.0 mg/kg/injection, schedule: Q01DX010 (ip), vehicle: saline"}, "[5]": {"settings": "endpoint: survival time, mean or median, dose: 40.0 mg/kg/injection, schedule: Q01DX010 (ip), vehicle: saline"}, "[6]": {"settings": "endpoint: survival time, mean or median, dose: 80.0 mg/kg/injection, schedule: Q01DX010 (ip), vehicle: saline"}},
  "note": "Where “and” joins values, the source holds several entries; their conditions need not be identical. Equal values may be shown once. Toxic doses and inconclusive results are not listed.",
  "data": [
    {"smiles": "NC(=O)c1[nH]nc(C2OC(CO)C(O)C2O)c1O", "note": "(stereo not drawn)", "values": [
      {"measurement": "T/C", "setting": "endpoint: median survival time, dose: 1.56 mg/kg/injection, schedule: Q04DX003 (ip), vehicle: saline", "value": "100 % of control"},
      {"measurement": "T/C", "setting": "endpoint: median survival time, dose: 2.59 mg/kg/injection, schedule: Q04DX003 (ip), vehicle: saline", "value": "103 % of control"},
      {"measurement": "T/C", "setting": "endpoint: median survival time, dose: 4.32 mg/kg/injection, schedule: Q04DX003 (ip), vehicle: saline", "value": "103 % of control"},
      {"measurement": "T/C", "setting": "endpoint: median survival time, dose: 7.2 mg/kg/injection, schedule: Q04DX003 (ip), vehicle: saline", "value": "104 % of control"},
      {"measurement": "T/C", "setting": "endpoint: median survival time, dose: 12.0 mg/kg/injection, schedule: Q04DX003 (ip), vehicle: saline", "value": "122 % of control"},
      {"measurement": "T/C", "setting": "endpoint: median survival time, dose: 20.0 mg/kg/injection, schedule: Q04DX003 (ip), vehicle: saline", "value": "111 % of control"}
    ]},
    {"smiles": "N=[N+]=CC(=O)OCC(N)C(=O)O", "note": "(stereo not drawn)", "values": [
      {"measurement": "T/C", "setting": "[1]", "value": "116 % of control"},
      {"measurement": "T/C", "setting": "[2]", "value": "150 % of control"},
      {"measurement": "T/C", "setting": "[3]", "value": "87 % of control and 91 % of control"}
    ]},
    {"smiles": "Clc1ncnc2nc[nH]c12", "values": [
      {"measurement": "T/C", "setting": "endpoint: survival time, mean or median, dose: 7.5 mg/kg/injection, schedule: Q01DX010 (ip), vehicle: saline", "value": "100 % of control"},
      {"measurement": "T/C", "setting": "endpoint: survival time, mean or median, dose: 15.0 mg/kg/injection, schedule: Q01DX010 (ip), vehicle: saline", "value": "100 % of control"},
      {"measurement": "T/C", "setting": "endpoint: survival time, mean or median, dose: 30.0 mg/kg/injection, schedule: Q01DX010 (ip), vehicle: saline", "value": "110 % of control"},
      {"measurement": "T/C", "setting": "endpoint: survival time, mean or median, dose: 60.0 mg/kg/injection, schedule: Q01DX010 (ip), vehicle: saline", "value": "100 % of control"}
    ]},
    {"smiles": "O=c1[nH]c(=O)n(C2CC(O)C(CO)O2)cc1F", "note": "(stereo not drawn)", "values": [
      {"measurement": "T/C", "setting": "endpoint: survival time, mean or median, dose: 10.0 mg/kg/injection, schedule: Q01DX010 (ip), vehicle: saline", "value": "103 % of control"},
      {"measurement": "T/C", "setting": "[4]", "value": "100 % of control"},
      {"measurement": "T/C", "setting": "[5]", "value": "114 % of control"},
      {"measurement": "T/C", "setting": "[6]", "value": "96 % of control"}
    ]},
    {"smiles": "COc1ccc(CSc2ncnc3nc[nH]c23)cc1", "values": [
      {"measurement": "T/C", "setting": "endpoint: survival time, mean or median, dose: 62.5 mg/kg/injection, schedule: Q01DX015 (ip), vehicle: carboxymethylcellulose (CMC)", "value": "95 % of control"},
      {"measurement": "T/C", "setting": "endpoint: survival time, mean or median, dose: 125.0 mg/kg/injection, schedule: Q01DX015 (ip), vehicle: carboxymethylcellulose (CMC)", "value": "92 % of control"},
      {"measurement": "T/C", "setting": "endpoint: survival time, mean or median, dose: 250.0 mg/kg/injection, schedule: Q01DX015 (ip), vehicle: carboxymethylcellulose (CMC)", "value": "87 % of control"}
    ]},
    {"smiles": "CS(=O)(=O)OCCC(=O)N1CCN(C(=O)CCOS(C)(=O)=O)CC1", "values": [
      {"measurement": "T/C", "setting": "[2]", "value": "116 % of control"},
      {"measurement": "T/C", "setting": "[3]", "value": "123 % of control"},
      {"measurement": "T/C", "setting": "endpoint: survival time, mean or median, dose: 50.0 mg/kg/injection, schedule: Q01DX010 (ip), vehicle: saline", "value": "156 % of control"},
      {"measurement": "T/C", "setting": "endpoint: survival time, mean or median, dose: 100.0 mg/kg/injection, schedule: Q01DX010 (ip), vehicle: saline", "value": "203 % of control"}
    ]},
    {"smiles": "CN(C)C(=S)N=Nc1c(O)[nH]c2ccccc12", "values": [
      {"measurement": "T/C", "setting": "endpoint: survival time, mean or median, dose: 25.0 mg/kg/injection, schedule: Q01DX015 (ip), vehicle: carboxymethylcellulose (CMC)", "value": "124 % of control"},
      {"measurement": "T/C", "setting": "endpoint: survival time, mean or median, dose: 100.0 mg/kg/injection, schedule: Q01DX015 (ip), vehicle: carboxymethylcellulose (CMC)", "value": "104 % of control"}
    ]},
    {"smiles": "C[C@H]1C(=O)O[C@@H]2CCN3CC=C(COC(=O)[C@](C)(O)[C@@]1(C)O)[C@H]23", "values": [
      {"measurement": "T/C", "setting": "[1]", "value": "116 % of control"},
      {"measurement": "T/C", "setting": "endpoint: survival time, mean or median, dose: 6.25 mg/kg/injection, schedule: Q01DX010 (ip), vehicle: saline", "value": "100 % of control"},
      {"measurement": "T/C", "setting": "[2]", "value": "104 % of control"},
      {"measurement": "T/C", "setting": "[3]", "value": "104 % of control"}
    ]},
    {"smiles": "COc1cc(-c2ccc(Nc3ccccc3C(=O)O)c(OC)c2)ccc1N", "values": [
      {"measurement": "T/C", "setting": "[4]", "value": "92 % of control and 100 % of control"},
      {"measurement": "T/C", "setting": "[5]", "value": "100 % of control"},
      {"measurement": "T/C", "setting": "[6]", "value": "92 % of control and 120 % of control"}
    ]},
    {"smiles": "CCOC=Nc1c(N)ncnc1Cl", "values": [
      {"measurement": "T/C", "setting": "endpoint: survival time, mean or median, dose: 62.5 mg/kg/injection, schedule: Q01DX015 (ip), vehicle: olive oil, sesame oil, peanut oil", "value": "107 % of control"},
      {"measurement": "T/C", "setting": "endpoint: survival time, mean or median, dose: 125.0 mg/kg/injection, schedule: Q01DX015 (ip), vehicle: olive oil, sesame oil, peanut oil", "value": "93 % of control"},
      {"measurement": "T/C", "setting": "endpoint: survival time, mean or median, dose: 250.0 mg/kg/injection, schedule: Q01DX015 (ip), vehicle: olive oil, sesame oil, peanut oil", "value": "101 % of control"},
      {"measurement": "T/C", "setting": "endpoint: survival time, mean or median, dose: 500.0 mg/kg/injection, schedule: Q01DX015 (ip), vehicle: olive oil, sesame oil, peanut oil", "value": "101 % of control"}
    ]},
    {"smiles": "COc1cc([C@@H]2c3cc4c(cc3[C@H](O)[C@H]3COC(=O)[C@@H]23)OCO4)cc(OC)c1OC", "values": [
      {"measurement": "T/C", "setting": "endpoint: survival time, mean or median, dose: 10.0 mg/kg/injection, schedule: Q01DX015 (ip), vehicle: carboxymethylcellulose (CMC)", "value": "98 % of control"},
      {"measurement": "T/C", "setting": "endpoint: survival time, mean or median, dose: 20.0 mg/kg/injection, schedule: Q01DX015 (ip), vehicle: carboxymethylcellulose (CMC)", "value": "119 % of control"}
    ]},
    {"smiles": "Nc1nc2n[nH]nc2c(=O)[nH]1", "values": [
      {"measurement": "T/C", "setting": "endpoint: survival time, mean or median, dose: 25.0 mg/kg/injection, schedule: Q01DX010 (ip), vehicle: alkali diluted with saline", "value": "108 % of control"},
      {"measurement": "T/C", "setting": "endpoint: survival time, mean or median, dose: 50.0 mg/kg/injection, schedule: Q01DX010 (ip), vehicle: alkali diluted with saline", "value": "104 % of control and 112 % of control"},
      {"measurement": "T/C", "setting": "endpoint: survival time, mean or median, dose: 100.0 mg/kg/injection, schedule: Q01DX010 (ip), vehicle: alkali diluted with saline", "value": "112 % of control and 116 % of control"},
      {"measurement": "T/C", "setting": "endpoint: survival time, mean or median, dose: 200.0 mg/kg/injection, schedule: Q01DX010 (ip), vehicle: alkali diluted with saline", "value": "116 % of control"}
    ]}
  ]
}
